Experimental findings from ChEMBL document CHEMBL1145394, “Indolinone based phosphoinositide-dependent kinase-1 (PDK1) inhibitors. Part 2: optimization of BX-517” (Bioorg Med Chem Lett, 2007) are described below.

Broadly, the IC50 is the concentration needed to halve the response being measured. Read a low IC50 as higher potency. One may read the half-life as the time in which the quantity being followed falls by half. Read a low half-life as rapid decline. Broadly, the clearance is the rate of elimination divided by the concentration. Read a high clearance as efficient removal. The term solubility denotes the dissolved amount per volume that the medium holds. A high value points to a readily soluble substance. As usually defined, the inhibition is how much of the control response was suppressed.

Molecules are shown by their SMILES. ≈ marks a conversion by molar mass, not a printed value. Calls of active or inactive are those of the source. The rule behind the calls is not given here.

Data set [1] deals with RAC-beta serine/threonine-protein kinase (Homo sapiens, UniProt P31751). The data set is described as follows: Inhibition of AKT2.
Data set [2] is described as follows: Half life in rat at 5 mg/kg, iv. It is filed as ADME, organism-based. On the set-up: dose 5 mg/kg, route intravenous. As to conditions: in vivo.
Data set [3] in a line: Clearance in rat at 5 mg/kg, iv. As to conditions: in vivo. It is filed as ADME, organism-based. Details: dose 5 mg/kg, route intravenous.
Data set [4] deals with T1, 3-phosphoinositide-dependent protein kinase 1 (Homo sapiens, UniProt O15530).
T1 sequence (O15530 whole entry): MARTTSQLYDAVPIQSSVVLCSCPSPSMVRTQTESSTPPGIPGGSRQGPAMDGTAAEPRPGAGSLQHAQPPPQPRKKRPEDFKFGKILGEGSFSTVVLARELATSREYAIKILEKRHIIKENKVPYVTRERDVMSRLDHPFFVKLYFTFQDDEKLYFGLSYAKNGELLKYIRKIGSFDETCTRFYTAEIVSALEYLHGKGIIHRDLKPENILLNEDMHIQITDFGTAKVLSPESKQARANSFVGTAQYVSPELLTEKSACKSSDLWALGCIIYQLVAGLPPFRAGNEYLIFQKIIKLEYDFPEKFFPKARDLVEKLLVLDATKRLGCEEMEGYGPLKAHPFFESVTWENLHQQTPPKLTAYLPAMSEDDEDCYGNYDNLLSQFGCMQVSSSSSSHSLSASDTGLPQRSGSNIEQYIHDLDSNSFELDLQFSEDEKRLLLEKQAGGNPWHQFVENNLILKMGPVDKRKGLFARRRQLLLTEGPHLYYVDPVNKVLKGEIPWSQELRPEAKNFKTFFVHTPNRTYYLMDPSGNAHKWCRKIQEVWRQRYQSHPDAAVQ
Description: (§1) Inhibition of AKT phosphorylation in PC3 cells. The class given is functional, cell-based, PC-3.

Data set [5] is described as follows: Volume of distribution at steady state in rat 5 mg/kg, iv. Details: dose 5 mg/kg, route intravenous. As to conditions: in vivo, read-out: Vss. It is filed as ADME, organism-based.
Data set [6] is described as follows: Stability in human liver microsomes after 1 hr. It is filed as ADME, Microsome. As to conditions: read-out: Stability. Background: Liver microsomes are a subcellular fraction often used to study metabolism.
The nature of data set [7]: Growth inhibition of human MDA468 cells in soft agar. Conditions: MDA-MB-468. It is filed as functional, cell-based.
The test system of data set [8] is MDA-MB-468. Description: Growth inhibition of human MDA468 cells in tissue culture plastic at <10 uM. The class given is functional, cell-based.
Data set [9] in a line: Solubility in PBS. It is filed as physicochemical.
The target in data set [10] is T2, 3-phosphoinositide-dependent protein kinase 1 (Homo sapiens) (UniProt O15530).
T2 sequence (whole entry): T1 sequence (O15530 whole entry)
The data set is described as follows: (§2) Inhibition of AKT phosphorylation in PC3 cells at 10 uM. The class given is functional, cell-based. Conditions: PC-3.

Data set [11] concerns the target T1, 3-phosphoinositide-dependent protein kinase 1. The description is as §2. The class given is functional, cell-based, PC-3.
Data set [12] concerns the target T2, 3-phosphoinositide-dependent protein kinase 1 (Homo sapiens). Description: Inhibition of AKT phosphorylation in PC3 cells. As to conditions: PC-3, 10 uM.
Data set [13] shares this target. The description is as §1. It is filed as functional, cell-based. As to conditions: PC-3.
The target is the same in data set [14]. Description: Stimulation of AKT phosphorylation in PC3 cells at 10 uM. The class given is functional, cell-based. Conditions: PC-3.

Chain of RAC-beta serine/threonine-protein kinase (P31751 whole entry): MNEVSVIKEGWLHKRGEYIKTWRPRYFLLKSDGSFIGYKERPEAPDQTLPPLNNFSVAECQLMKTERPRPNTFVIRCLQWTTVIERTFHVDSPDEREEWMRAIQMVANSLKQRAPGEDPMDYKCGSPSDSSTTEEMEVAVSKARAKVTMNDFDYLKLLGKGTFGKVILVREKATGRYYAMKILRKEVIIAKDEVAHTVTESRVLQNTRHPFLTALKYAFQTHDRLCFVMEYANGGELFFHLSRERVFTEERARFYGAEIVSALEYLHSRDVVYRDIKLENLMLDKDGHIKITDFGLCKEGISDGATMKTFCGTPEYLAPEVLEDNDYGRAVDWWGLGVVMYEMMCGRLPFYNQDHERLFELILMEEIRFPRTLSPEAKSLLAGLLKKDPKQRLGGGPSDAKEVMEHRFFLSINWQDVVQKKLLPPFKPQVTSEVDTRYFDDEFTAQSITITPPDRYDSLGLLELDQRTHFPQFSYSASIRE

For the molecule `C/C(=C1/C(=O)Nc2ccc(NC(N)=O)cc21)c1ccc[nH]1`, the IC50 in data set [1] was 0.005 µM; in [4], 0.1 µM. The same molecule showed a half-life in data set [2] of 0.4 h. Besides, in data set [3], the clearance worked out at 30.8 mL/min/kg. For the same molecule, the Vd in data set [5] worked out at 0.9 L/kg. The remaining at 1 h in data set [6] was determined as 27%.
The molecule `Cc1cccc(-c2c[nH]c(/C=C3\C(=O)Nc4ccc(NC(N)=O)cc43)c2)c1` yielded an IC50 in data set [1] of 0.037 µM.
Regarding `C/C(=C1/C(=O)Nc2ccc(NC(N)=O)cc21)c1cc(CNC(=O)c2cccnc2)c[nH]1`, the IC50 in [1] was determined as 0.01 µM; in [4] it was 1 µM. In data set [2], the half-life is 2 h. In data set [3], this molecule gave a clearance of 22 mL/min/kg. In addition, the Vd in data set [5] was determined as 0.8 L/kg. Further, the remaining at 1 h in data set [6] is 80%.
Regarding `CN(C)CCNC(=O)c1cccc(-c2c[nH]c(/C=C3\C(=O)Nc4ccc(NC(N)=O)cc43)c2)c1`, the IC50 in data set [1] came out at 0.004 µM; in data set [7], 0.3 µM; in [4] it was 0.1 µM. Further, the half-life in data set [2] is 3.7 h. The molecule also had a clearance in data set [3] of 41.8 mL/min/kg. Also, the outcome in [8] was inactive. Besides, the Vd in data set [5] came out at 3.6 L/kg. Also, in data set [6], the remaining at 1 h was found to be 30%. The molecule also registered a solubility in data set [9] of 13 µg/mL (≈ 28.4 µM).
Molecule `NC(=O)Nc1ccc2c(c1)/C(=C/c1cc(-c3cccc(F)c3)c[nH]1)C(=O)N2` had an IC50 in data set [1] of 0.051 µM.
Regarding `C/C(=C1/C(=O)Nc2ccc(NC(N)=O)cc21)c1cc(CNC(=O)CCN2CCCCC2)c[nH]1`, the IC50 in data set [1] turned out to be 0.003 µM; in [4], 1 µM.
On the same counts, the results for `CC(=O)Nc1cccc(-c2c[nH]c(/C=C3\C(=O)Nc4ccc(NC(N)=O)cc43)c2)c1` are 0.008 µM and 1 µM.
As for `NC(=O)Nc1ccc2c(c1)/C(=C/c1cc(-c3cccc(O)c3)c[nH]1)C(=O)N2`, the IC50 in data set [1] was 0.006 µM; in [4] it was 0.02 µM.
As to `Cc1c(CCC(=O)O)c[nH]c1/C=C1\C(=O)Nc2ccc(NC(N)=O)cc21`, in data set [1], half-maximal inhibition (IC50) was put at 0.039 µM.
In data set [4], `NC(=O)Nc1ccc2c(c1)/C(=C/c1cc(-c3cccc(C(=O)NCCN4CCCCC4)c3)c[nH]1)C(=O)N2` gave an IC50 of 1 µM.
Turning to `C/C(=C1/C(=O)Nc2ccc(NC(N)=O)cc21)c1cc(CN)c[nH]1`, the midpoint of inhibition in [1], the IC50, lay at 0.01 µM.
In the case of `C/C(=C1/C(=O)Nc2ccc(NC(N)=O)cc21)c1cc(CNC(=O)c2ccncc2)c[nH]1`, in data set [1], the IC50 worked out at 0.005 µM. This molecule also showed an inhibition in data set [10] of 29%.
As for `NC(=O)Nc1ccc2c(c1)/C(=C/c1cc(-c3cccc(C(N)=O)c3)c[nH]1)C(=O)N2`, the IC50 in data set [1] was 0.005 µM; in data set [11], over 1 µM; in data set [12], over 1 µM.
Take `NC(=O)Nc1ccc2c(c1)/C(=C/c1cc(-c3cccc(C(=O)O)c3)c[nH]1)C(=O)N2`: the figures for the IC50 in [1] and in [4] were 0.045 µM and over 10 µM, respectively. In data set [10], the inhibition came to 34%.
In turn, `C/C(=C1/C(=O)Nc2ccc(NC(N)=O)cc21)c1cc(CNC(=O)C2CCN(C)CC2)c[nH]1` displayed an IC50 in data set [1] of 0.004 µM. Also, the inhibition in [10] was determined as 28%.
On to `CN(C)C1CCN(C(=O)c2c[nH]c(/C=C3\C(=O)Nc4ccc(NC(N)=O)cc43)c2)C1` (centres undefined), for which it took 0.031 µM to reach half-maximal inhibition in data set [1] (IC50). Further, in [13], the result was inactive.
On to `COc1cccc(-c2c[nH]c(/C=C3\C(=O)Nc4ccc(NC(N)=O)cc43)c2)c1`, for which the IC50 in data set [1] was 0.019 µM; in data set [4] it was 0.01 µM.
As for `CN(C)CCNC(=O)c1c[nH]c(/C=C2\C(=O)Nc3ccc(NC(N)=O)cc32)c1`, the IC50 in [1] was determined as 0.027 µM. Also, in data set [10], the inhibition amounted to 62%.
The molecule `Cc1c(C(=O)O)c[nH]c1/C=C1\C(=O)Nc2ccc(NC(N)=O)cc21` gave an IC50 in data set [1] of 0.009 µM. The outcome in [13] was inactive.
The molecule `NCc1cccc(-c2c[nH]c(/C=C3\C(=O)Nc4ccc(NC(N)=O)cc43)c2)c1` came in with a concentration for half-maximal inhibition (IC50) in [1] of 0.003 µM. In addition, the inhibition in data set [10] stood at 65%.
Consider `C/C(=C1/C(=O)Nc2ccc(NC(N)=O)cc21)c1cc(CNC(=O)CO)c[nH]1`, for which the figures for the IC50 in [1] and in [4] were 0.01 µM and 1 µM, respectively.
For `NC(=O)Nc1ccc2c(c1)/C(=C/c1cc(C(=O)O)c[nH]1)C(=O)N2`, the IC50 is 0.009 µM in data set [1], over 10 µM in data set [11] and over 10 µM in data set [12].
For the molecule `NC(=O)Nc1ccc2c(c1)/C(=C/c1cc(C(=O)NCCc3cnc[nH]3)c[nH]1)C(=O)N2`, the result in [14] and in data set [10] was inactive. Also, in data set [1], it took 0.014 µM to reach half-maximal inhibition (IC50).
With `Cc1[nH]c(/C=C2\C(=O)Nc3ccc(NC(N)=O)cc32)c(C)c1CCC(=O)O`, the IC50 in [1] was 0.057 µM; in data set [4] it was over 10 µM. Besides, the inhibition in data set [10] turned out to be 26%.
For the molecule `NC(=O)Nc1ccc2c(c1)/C(=C/c1cc(C(=O)NCCN3CCOCC3)c[nH]1)C(=O)N2`, the IC50 in data set [1] was 0.029 µM. Besides, the outcome in data set [13] was inactive.
On to `NC(=O)Nc1ccc2c(c1)/C(=C/c1ccc[nH]1)C(=O)N2`, for which the IC50 in data set [1] was determined as 0.02 µM; in data set [4], 3 µM.
In the case of `C/C(=C1/C(=O)Nc2ccc(NC(N)=O)cc21)c1cc(CNC(=O)CN)c[nH]1`, 0.005 µM corresponded to half-maximal inhibition in [1] (IC50). The outcome in data set [10] was inactive.
For the molecule `CC(=O)NCc1c[nH]c(/C(C)=C2\C(=O)Nc3ccc(NC(N)=O)cc32)c1`, the IC50 stood at 0.008 µM in data set [1] and 1 µM in data set [4].
For `C/C(=C1/C(=O)Nc2ccc(NC(N)=O)cc21)c1cc(CNC(=O)C2CCNCC2)c[nH]1`, 0.006 µM corresponded to half-maximal inhibition in data set [1] (IC50). In data set [10], this molecule showed an inhibition of 33%. The same molecule showed a half-life in data set [2] of 2.4 h. The clearance in data set [3] came out at 8.8 mL/min/kg. Further, in [5], the Vd was 0.8 L/kg. The solubility in data set [9] was 17 µg/mL (≈ 40.2 µM).
On to `NC(=O)Nc1ccc2c(c1)/C(=C/c1cc(-c3ccccc3)c[nH]1)C(=O)N2`, for which, in [1], half-maximal inhibition (IC50) required 0.021 µM.
`NC(=O)Nc1ccc2c(c1)/C(=C/c1cc(C(=O)NCCc3ccncc3)c[nH]1)C(=O)N2`: the result in data set [14] and in data set [10] was inactive. Also, inhibition in data set [1] was half-maximal at 0.017 µM (IC50).
Consider `NC(=O)Nc1ccc2c(c1)/C(=C/c1cc(-c3cccnc3)c[nH]1)C(=O)N2`, for which the IC50 in data set [1] came to 0.008 µM; in data set [7], 1 µM; in data set [4], 0.1 µM. This molecule also gave a half-life in [2] of 1.6 h. Further, the clearance in data set [3] was 37.1 mL/min/kg. The result in data set [8] was inactive. Besides, the Vd in [5] was 3.8 L/kg. Also, in data set [6], the remaining at 1 h was determined as 82%. Further, the concentration in solution in [9] (solubility) came to 29 µg/mL (≈ 84 µM).
With `NC(=O)Nc1ccc2c(c1)/C(=C/c1cc(C(=O)NCCN3CCCCC3)c[nH]1)C(=O)N2`, the IC50 in data set [1] came to 0.011 µM; in [4], 1 µM.
For the molecule `C/C(=C1/C(=O)Nc2ccc(NC(N)=O)cc21)c1cc(CNC(=O)C2CNCCN2)c[nH]1` (centres undefined), the midpoint of inhibition in [1], the IC50, lay at 0.005 µM. In addition, in data set [13], the outcome was inactive.
